Measurements published in patent US20080227780A1, “SOLUBLE EPOXIDE HYDROLASE INHIBITORS” (Arete Therapeutics, Inc., priority 2007, published 2008).

Test system: soluble epoxide hydrolase (sEH)
Test: Fluorescent assay for soluble epoxide hydrolase (CMNPC substrate), percent inhibition at the recited concentration
Type: biochemical
Conditions: Inhibition Conc. 50 nM
From the text: Fluorescent Assay for Mouse and Human Soluble Epoxide Hydrolase Recombinant mouse sEH (MsEH) and human sEH (HsEH) were produced in a baculovirus expression system as previously reported. Grant et al., J. Biol. Chem., 268:17628-17633 (1993); Beetham et al., Arch. Biochem. Biophys., 305:197-201 (1993). The expressed proteins were purified from cell lysate by affinity chromatography. Wixtrom et al., Anal. Biochem., 169:71-80 (1988). Protein concentration was quantified using the Pierce BCA assay using bovine serum albumin as the calibrating standard. The preparations were at least 97% pure as judged by SDS-PAGE and scanning densitometry. They contained no detectable esterase or glutathione transferase activity which can interfere with the assay. The assay was also evaluated with similar results in crude cell lysates or homogenate of tissues. The IC50s for each inhibitor were determined according to the following procedure: […] Jones P. D. et al.; Analytical Biochemistry 2005; 343: pp. 66-75) Bis/Tris HCl 25 mM pH 7.0 containing 0.1 mg/mL of BSA (buffer […] at 0.25 mM in DMSO. Mother solution of enzyme in buffer A (Mouse sEH at 6 μg/mL and Human sEH at 5 μg/mL). Inhibitor dissolved in DMSO at the appropriate concentration. In a black 96 well plate, fill all the wells with 150 μL of buffer A. Add 2 μL of DMSO in well A2 and A3, and then add 2 μL of inhibitor solution in A1 and A4 through A12. Add 150 μL of buffer A in row A, then mix several time and transfer 150 μL to row B. Repeat this operation up to row H. The 150 μL removed from row H is discarded. Add 20 μL of buffer A in column 1 and 2, then add 20 μL of enzyme solution to column 3 to 12. Incubate the plate for 5 minutes in the plate reader at 30° C. During incubation prepare the working solution of substrate by mixing 3.68 mL of buffer A (4×0.920 mL) with 266 μL (2×133 μL) of substrate solution). At t=0, add 30 μL of working substrate solution with multi-channel pipette labeled “Briggs 303” and start the reading ([S]final: 5 μM). Read with ex: 330 nm (20 nm) and em: 465 nm (20 nm) every 30 second for 10 minutes. The velocities are used to analyze and calculate the IC50s. Tables 1-7 above provide the percent inhibition of the enzyme when tested at the concentration recited therein.

In order of rising “% inh.” value:
1. CC(=O)N1CCC(NC(=O)NC2CCC(C)(C)CC2)CC1 [Compound 7-6, 1-(1-acetylpiperidin-4-yl)-3-(4,4-dimethylcyclo-hexyl)urea]  70%
2. CCC1CCC(NC(=O)NC2CCN(C(C)=O)CC2)CC1 (stereo not drawn) [Compound 7-4, 1-(1-acetylpiperidin-4-yl)-3-(4-ethylcyclohexyl)urea]  72%
3. CC(C)(C)OC(=O)N1CCC(NC(=O)Nc2ccc(S(=O)(=O)N3CCOCC3)cc2)CC1 [Compound 5-1, tert-butyl 4-(3-(4-(morpholinosulfonyl)-phenyl)ureido)-piperidine-1-carboxylate]  80%
4. CCCOc1ccc(NC(=O)NC2CCN(C(=O)OC(C)(C)C)CC2)cc1 [Compound 7-10, tert-butyl 4-(3-(4-propoxyphenyl)ureido)-piperidine-1-carboxylate]  80%
5. CC(C)(C)OC(=O)N1CCC(NC(=O)Nc2ccc3ncccc3c2)CC1 [Compound 6-1, tert-butyl 4-(3-quinolin-6-yl-ureido)piperidine-1-carboxylate]  86%
6. CC(=O)N1CCC(NC(=O)NC2CC3CCC2C3)CC1 (stereo not drawn) [Compound 7-7, 1-(1-acetylpiperidin-4-yl)-3-(bicyclo[2.2.1]heptan-2-yl)urea]  88%
7. Cc1nc(C(=O)N2CCC(NC(=O)NC34CC5CC(CC(C5)C3)C4)CC2)c(C)o1 [Compound 7-8, 1-(1-adamantyl)-3-(1-(2,5-dimethyloxazole-4-carbonyl)piperidin-4-yl)urea]  89%
8. CC(C)(C)C(=O)N1CCC(NC(=O)NC23CC4CC(CC(C4)C2)C3)CC1 [Compound 7-13, 1-(1-adamantyl)-3-(1-pivaloylpiperidin-4-yl)urea]  91%
9. CC(C)(C)OC(=O)N1CCC(NC(=O)Nc2ccc3c(c2)CCC3)CC1 [Compound 6-5, tert-butyl 4-(3-(2,3-dihydro-1H-inden-5-yl)ureido)-piperidine-1-carboxylate]  92%
10. CC(C)(C)OC(=O)N1CCC(NC(=O)Nc2ccc(Oc3ccccc3)cc2)CC1 [Compound 7-9, tert-butyl 4-(3-(4-phenoxyphenyl)ureido)-piperidine-1-carboxylate]  92%
11. COC(=O)N1CCC(NC(=O)Nc2ccc(C(F)(F)F)cc2)CC1 [Compound 7-14, methyl 4-(3-(4-(trifluoromethyl)phenyl)ureido)piperidine-1-carboxylate]  92%
12. CNS(=O)(=O)c1cccc(C(=O)N2CCC(NC(=O)Nc3ccc(OC(F)(F)F)cc3)CC2)c1 [Compound 4-10, N-methyl-3-(4-(3-(4-(trifluoromethoxy)-phenyl)ureido)-piperidine-1-carbonyl)benzene-sulfonamide]  93%
13. CC(=O)N1CCC(NC(=O)NC2CCC3CCCCC3C2)CC1 (stereo not drawn) [Compound 7-5, 1-(1-acetylpiperidin-4-yl)-3-(decahydronaphthalen-2-yl)urea]  93%
14. CCOC(=O)N1CCC(NC(=O)Nc2ccc(C(F)(F)F)cc2)CC1 [Compound 7-15, ethyl 4-(3-(4-(trifluoromethyl)phenyl)ureido)piperidine-1-carboxylate]  93%
15. O=C(Nc1ccc(OC(F)(F)F)cc1)NC1CCN(C(=O)c2ccccn2)CC1 [Compound 7-2, 1-(1-picolinoylpiperidin-4-yl)-3-(4-(trifluoro-methoxy)phenyl)urea]  98%
16. O=C(Nc1ccc(C(F)(F)F)cc1)NC1CCN(C(=O)Nc2ccc(C(F)(F)F)cc2)CC1 [Compound 7-16, N-(4-(trifluoromethyl)phenyl)-4-(3-(4-(trifluoro-methyl)phenyl)ureido)-piperidine-1-carboxamide]  98%
17. COc1ccc(S(=O)(=O)N2CCC(NC(=O)NC34CC5CC(CC(C5)C3)C4)CC2)cc1 [Compound 7-1, 1-(1-adamantyl)-3-(1-(4-methoxyphenylsulfonyl)-piperidin-4-yl)urea]  99%

Same assay, conditions: Inhibition Conc. 200 nM

In order of falling “% inh.” value:
1. COC(=O)c1ccc(NC(=O)NC2CCN(C(=O)OC(C)(C)C)CC2)s1 [Compound 6-17, tert-butyl 4-(3-(5-(methoxycarbonyl)thiophen-2-yl)ureido)piperidine-1-carboxylate]  87%
2. Cc1nc2ccc(NC(=O)NC3CCN(C(=O)OC(C)(C)C)CC3)cc2s1 [Compound 6-14, tert-butyl 4-(3-(2-methylbenzo[d]thiazol-6-yl)ureido)piperidine-1-carboxylate]  77%

Same assay, conditions: Inhibition Conc. 500 nM

In order of falling “% inh.” value:
1. CC(=O)N1CCC(NC(=O)Nc2ccc(Oc3ccccc3)cc2)CC1 [Compound 7-12, 1-(1-acetylpiperidin-4-yl)-3-(4-phenoxyphenyl)urea]  95%
2. CNS(=O)(=O)c1ccc(C(=O)N2CCC(NC(=O)Nc3ccc(F)cc3)CC2)cc1 [Compound 4-11, 4-(4-(3-(4-fluorophenyl)ureido)piperidine-1-carbonyl)-N-methylbenzene-sulfonamide]  94%
3. CC(=O)N1CCC(NC(=O)Nc2ccc3c(c2)CCC3)CC1 [Compound 6-6, 1-(1-acetyl-piperidin-4-yl)-3-(2,3-dihydro-1H-inden-5-yl)urea]  93%
4. CC(C)(C)OC(=O)N1CCC(NC(=O)Nc2ccc(-c3nnn[nH]3)cc2)CC1 [Compound 6-8, tert-butyl 4-(3-(4-(1H-tetrazol-5-yl)phenyl)-ureido)piperidine-1-carboxylate]  93%
5. CC(=O)N1CCC(NC(=O)Nc2ccc(S(=O)(=O)N3CCOCC3)cc2)CC1 [Compound 5-2, 1-(1-acetylpiperidin-4-yl)-3-(4-(morpholinosulfonyl)phenyl)urea]  90%
6. CC(C)(C)OC(=O)N1CCC(NC(=O)Nc2ccc3cc[nH]c3c2)CC1 [Compound 6-2, tert-butyl 4-(3-1H-indol-6-yl-ureido)piperidine-1-carboxylate]  87%
7. CC(=O)N1CCC(NC(=O)NC2CCC(C(C)(C)C)CC2)CC1 (stereo not drawn) [Compound 7-3, 1-(1-acetylpiperidin-4-yl)-3-(4-tert-butylcyclohexyl)urea]  86%
8. CC(=O)N1CCC(NC(=O)Nc2ccc3ncccc3c2)CC1 [Compound 6-4, 1-(1-acetylpiperidin-4-yl)-3-(quinolin-6-yl)urea]  70%

Same assay, conditions: Inhibition Conc. 2000 nM

In order of falling “% inh.” value:
1. COc1ccc(NC(=O)NC2CCN(C(=O)C(C)(C)C)CC2)cn1 [Compound 6-13, 1-(6-methoxypyridin-3-yl)-3-(1-pivaloylpiperidin-4-yl)urea]  97%
2. COC(=O)c1ccc(NC(=O)NC2CCN(C(=O)OC(C)(C)C)CC2)o1 [Compound 6-18, tert-butyl 4-(3-(5-(methoxycarbonyl)furan-2-yl)ureido)piperidine-1-carboxylate]  89%
3. CC(=O)N1CCC(NC(=O)Nc2ccc3c(c2)OCCO3)CC1 [Compound 6-19, 1-(1-acetylpiperidin-4-yl)-3-(2,3-dihydrobenzo[b][1,4]dioxin-6-yl)urea]  87%
4. COC(=O)c1ccc(NC(=O)NC2CCN(C(C)=O)CC2)s1 [Compound 6-16, methyl 5-(3-(1-acetylpiperidin-4-yl)ureido)thiophene-2-carboxylate]  78%
5. CC(=O)N1CCC(NC(=O)Nc2ccc3nc(C)sc3c2)CC1 [Compound 6-15, 1-(1-acetylpiperidin-4-yl)-3-(2-methylbenzo[d]thiazol-6-yl)urea]  70%
6. COc1ccc(NC(=O)NC2CCN(C(C)=O)CC2)cn1 [Compound 6-11, 1-(1-acetylpiperidin-4-yl)-3-(6-methoxypyridin-3-yl)urea]  44%
7. CC(=O)N1CCC(NC(=O)Nc2cccnc2)CC1 [Compound 6-12, 1-(1-acetylpiperidin-4-yl)-3-(pyridin-3-yl)urea]  40%
8. CC(=O)N1CCC(NC(=O)Nc2ccccn2)CC1 [Compound 6-10, 1-(1-acetylpiperidin-4-yl)-3-(pyridin-2-yl)urea]  18%

Same assay, conditions: Inhibition Conc. 5000 nM

In order of falling “% inh.” value:
1. CCCOc1ccc(NC(=O)NC2CCN(C(C)=O)CC2)cc1 [Compound 7-11, 1-(1-acetylpiperidin-4-yl)-3-(4-propoxyphenyl)urea]  94%
2. CC(=O)N1CCC(NC(=O)Nc2ccc(-c3nnn[nH]3)cc2)CC1 [Compound 6-9, 1-(4-(1H-tetrazol-5-yl)phenyl)-3-(1-acetylpiperidin-4-yl)urea]  84%
3. CC(C)(C)OC(=O)N1CCC(NC(=O)Nc2ccncc2)CC1 [Compound 6-3, tert-butyl 4-(3-pyridin-4-yl-ureido)piperidine-1-carboxylate]  81%

Same assay, conditions: Inhibition Conc. 50000 nM

In the case of `CC(=O)N1CCC(NC(=O)Nc2ccncc2)CC1` [Compound 6-7, 1-(1-acetyl-piperidin-4-yl)-3-(pyridin-4-yl)urea], the “% inh.” value is reported as 53%.
